Measurements published in patent publication US9556117B2, “Indole carboxamide derivatives as P2X7 receptor antagonists” (ACTELION PHARMACEUTICALS LTD, priority 2012, dated 2017).

Biological target: human recombinant P2X7 receptor (Homo sapiens (Human), UniProt Q99572)
Assay: YO-PRO1 assay, P2X7 receptor antagonistic activity

Sequence of human recombinant P2X7 receptor (Q99572 whole entry): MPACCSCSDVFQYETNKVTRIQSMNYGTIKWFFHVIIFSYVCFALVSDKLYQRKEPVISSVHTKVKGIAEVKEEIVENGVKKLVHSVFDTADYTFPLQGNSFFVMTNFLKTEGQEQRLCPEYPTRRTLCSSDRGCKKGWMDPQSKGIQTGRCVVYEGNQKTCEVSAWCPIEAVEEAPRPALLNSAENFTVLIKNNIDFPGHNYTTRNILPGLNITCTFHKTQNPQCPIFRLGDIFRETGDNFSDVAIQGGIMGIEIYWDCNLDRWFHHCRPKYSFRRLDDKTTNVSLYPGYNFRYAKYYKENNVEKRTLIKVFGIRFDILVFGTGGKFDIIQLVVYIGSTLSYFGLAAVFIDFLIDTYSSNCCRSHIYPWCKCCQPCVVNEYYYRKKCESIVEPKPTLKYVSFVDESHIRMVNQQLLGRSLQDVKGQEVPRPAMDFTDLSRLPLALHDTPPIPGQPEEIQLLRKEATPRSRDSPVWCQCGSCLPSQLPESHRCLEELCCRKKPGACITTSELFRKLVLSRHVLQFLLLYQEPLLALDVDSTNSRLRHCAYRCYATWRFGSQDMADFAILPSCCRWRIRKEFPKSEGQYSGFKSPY

Row | SMILES | IC50
1 | CC(O)c1cc(C(=O)NCC2(O)CCC(F)(F)CC2)c(Cl)c2cc[nH]c12 (racemic) [Example 67, rac-4-Chloro-7-(1-hydroxy-ethyl)-1H-indole-5-carboxylic acid (4,4-difluoro-1-hydroxy-cyclohexylmethyl)-amide] | 4.7 nM
2 | O=C(NC(CO)C1CCCCCC1)c1ccc2[nH]ccc2c1Cl (racemic) [Example 10, rac-4-Chloro-1H-indole-5-carboxylic acid (1-cycloheptyl-2-hydroxy-ethyl)-amide] | 57 nM
